From US10857112B2, “Small molecule inhibitors of RNA binding motif (RBM) proteins for the treatment of acute cellular injury” (University of Pittsburgh—Of the Commonwealth System of …, priority 2012, dated 2020)

Tests used:
caspase-3 = experiment: Western blot of cleaved caspase-3 and caspase-3 substrates after STS; type: cell-based, rat; conditions: 125 μM
Description: Caspase-3 inhibition was confirmed by biochemical analysis. Protein samples harvested from neurons incubated with 125 μM AQ2S and 500 nM STS for 6 hours were run on western blot. Consistent with caspase-3 inhibition, cleaved (i.e., activated) capase-3 was reduced in AQ2S-treated neurons (FIG. 8D). Finally, the inhibition of caspase-3 by AQ2S was confirmed biochemically via western blot analysis of substrate cleavage products. Poly ADP ribose polymerase is a classic caspase-3 substrate. The parent protein migrates at ˜116 KDa on SDS-PAGE. An 89-KDa product is produced upon cleavage by caspase-3. Cortical neurons were subjected to 250 nM STS for 6 hours.
(§1) Neurons used for Western blot analysis for grown in 6-well plates. Briefly, neurons were treated with experimental compounds for the indicated time/conditions. At the end of each experiment, neurons were washed in ice cold PBS and harvested in 65 μL RIPA buffer containing protease inhibitors, phosphatase inhibitors, and EDTA. Extracts were collected in 0.5 mL tubes and sonicated for 20-30 seconds. Cell extracts were then spun at 4° C./16,000 g/10 minutes and stored at −80° C. until use. Frozen extracts were thawed on ice and protein concentration measured using the BCA assay (PIERCE). […] of sample protein was loaded per well of a 7.5% SDS precast gel (Biorad), and run for 30 minutes to 1 hour at 200 V. Kaleidoscope protein standards (Biorad) were run parallel to neuron extracts. Proteins were then transferred to PDVF membranes (run at 100 V/4° C./1.5 hours). PDVF membranes were washed once in tris buffered saline (TBS) and blocked for 1 hour in tris buffered saline/tween-20 with 7.5% nonfat milk (TBS-T/milk). Blots were incubated overnight at 4° C. with primary antibodies in TBS-T/milk. Cell Signaling Technology: phospho-AKT473, AKT Total, phospho-ERK1/2, ERK Total, cleavage caspase-3. Santa Cruz Antibodies: NF-κB p50 subunit, NF-κB p65 subunit, and beta actin. Calbiochem: 4-HNE antibody. Blots were washed 3 times (5 minutes each) with TBS, and incubated with secondary antibodies for 2 hours. Invitrogen: goat anti-rabbit or goat anti-mouse. Blots were washed 3 times (5 minutes each) with TBS, and incubated for 1 minute in HRP detection solution (Amersham). Films were exposed to blots and developed (SRX-101A, Konica Minolta Medical & Graphic Inc.). Re-probed blots (e.g. beta actin, AKT total, ERK total) were stripped in western blot stripping buffer (Fischer Scientific) for 10 minutes, washed once with TBS, re-blocked in TBS-T/milk for 1 hour, and incubated overnight with new primary antibody. Films were scanned (EPSON GT 20,000), and densitometry performed using UN-SCAN-IT software (Silk Scientific).

RBM5 = target: T1, RBM5 (Homo sapiens, UniProt P52756); conditions: cited from earlier work
T1 sequence (P52756 181-210 limits assumed): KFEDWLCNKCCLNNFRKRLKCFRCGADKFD

mice [1] = conditions: intraperitoneal; cited from earlier work
rats = conditions: intraperitoneal; cited from earlier work
4-HNE = experiment: Lipid peroxidation (4-HNE western blot) in neurons; type: cell-based, rat
Description: To test if AQ2S promotes lipid peroxidation in neurons, at D.I.V. 12, culture media was exchanged with Neurobasal/B27 (−AO) in the absence or presence of […] for 48 hours. D.I.V. 14 neurons were harvested and analyzed for 4-HNE levels.
Injury (e.g. brain ischemia), robustly increases endogenous reactive oxygen species (ROS) levels. ROS may promote the formation of deleterious quinone radicals and increase lipid peroxidation. The potential enhancement by AQ2S of lipid peroxidation induced by 200 μM H2O2 was evaluated. D.I.V. 13 neurons were treated for 4.5 hours with 200 μM H2O2 in fresh neurobasal/B27 (−AO) in the presence or absence of 125 μM AQ2S. 200 μM H2O2 increased 4-HNE levels. The asterisk in FIG. 17b indicates an approximate 40-45 KDa band, particularly, sensitive to treatment.
Neurons used for Western blot analysis for grown in 6-well plates. Briefly, neurons were treated with experimental compounds for the indicated time/conditions. At the end of each experiment, neurons were washed in ice cold PBS and harvested in 65 μL RIPA buffer containing protease inhibitors, phosphatase inhibitors, and EDTA. Extracts were collected in 0.5 mL tubes and sonicated for 20-30 seconds. Cell extracts were then spun at 4° C./16,000 g/10 minutes and stored at −80° C. until use. Frozen extracts were thawed on ice and protein concentration measured using the BCA assay (PIERCE). […]

[2] = target: T2, recombinant active caspase-3 (Homo sapiens, UniProt P42574); experiment: In vitro cell-free caspase-3 drug screening assay (DEVD-AFC); type: biochemical
T2 construct: The reaction mixture was combined with recombinant active caspase-3 and a DEVD-AFC probe; purchased PromoKine (Heidelberg, Germany)
T2 sequence (P42574 29-175 limits assumed): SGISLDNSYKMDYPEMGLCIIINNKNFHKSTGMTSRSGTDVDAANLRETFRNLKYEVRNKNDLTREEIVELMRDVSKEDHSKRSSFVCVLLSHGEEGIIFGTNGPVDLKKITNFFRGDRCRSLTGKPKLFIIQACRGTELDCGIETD
T2 sequence (P42574 176-277 limits assumed): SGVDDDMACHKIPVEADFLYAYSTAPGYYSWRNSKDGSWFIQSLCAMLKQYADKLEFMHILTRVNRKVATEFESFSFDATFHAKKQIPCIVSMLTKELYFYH
Description: An in vitro caspase drug screening kit was purchased from PromoKine (Heidelberg, Germany), and used according to the manufacturer's instructions. Briefly, all drugs were dissolved in DMSO and diluted in double-distilled water to desired concentration. The reaction mixture was combined with recombinant active caspase-3 and a DEVD-AFC probe. Active caspase-3 cleaves the DEVD-recognition sequence and releases fluorescent AFC. The amount of AFC detected is a measure of caspase-3 activity. Reactions were prepared in black-walled 96-well plates, incubated at 37° C., and AFC release measured with an AFC filter (Ex: 405 nm, Em: 495-505 nM) on a GLOMax-Multi Microplate Reader (Promega).

[3] = tested on: extracellular regulated kinase (ERK); experiment: Western blot of ERK activation; type: cell-based, rat; conditions: 125 μM; 17 hours STS
Description: To determine the specificity of AQ2S mediated signaling changes, extracellular regulated kinase (ERK) was also examined. 17 hours STS abolished ERK activation.
Neurons used for Western blot analysis for grown in 6-well plates. Briefly, neurons were treated with experimental compounds for the indicated time/conditions. At the end of each experiment, neurons were washed in ice cold PBS and harvested in 65 μL RIPA buffer containing protease inhibitors, phosphatase inhibitors, and EDTA. Extracts were collected in 0.5 mL tubes and sonicated for 20-30 seconds. Cell extracts were then spun at 4° C./16,000 g/10 minutes and stored at −80° C. until use. Frozen extracts were thawed on ice and protein concentration measured using the BCA assay (PIERCE). […] of sample protein was loaded per well of a 7.5% SDS precast gel (Biorad), and run for 30 minutes to 1 hour at 200 V. Kaleidoscope protein standards (Biorad) were run parallel to neuron extracts. Proteins were then transferred to PDVF membranes (run at 100 V/4° C./1.5 hours). PDVF membranes were washed once in tris buffered saline (TBS) and blocked for 1 hour in tris buffered saline/tween-20 with 7.5% nonfat milk (TBS-T/milk). Blots were incubated overnight at 4° C. with primary antibodies in TBS-T/milk. Cell Signaling Technology: phospho-AKT473, AKT Total, phospho-ERK1/2, ERK Total, cleavage caspase-3. […]

mice [4] = conditions: IP 100, 200 or 400 mg/kg; cited from earlier work
AKT = experiment: Western blot of AKT activation (pAKT473); type: cell-based, rat
Description: AKT is a key pro-survival kinase that is dysregulated by acute brain injury. Many diverse therapies used to prevent neuronal death activate AKT, including small molecules, endogenously derived survival proteins, and other non-pharmacology based treatments like therapeutic hypothermia. To further elucidate the mechanisms of AQ2S-mediated neuroprotection, the level of activated (phosphorylated) AKT was measured by western blot.
as §1

caspase-9 = experiment: STS-induced caspase-9 activity in neurons; type: cell-based, rat; conditions: 150 nM STS 24 hours; co-treatment 75 μM

Question: Which “89-KDa PARP cleavage product, western blot” value (caspase-3; 250 nM STS 6 hours) does the source give for `O=C1c2ccccc2C(=O)c2cc(S(=O)(=O)O)ccc21` [AQ2S, anthraquinone-2-sulfonic acid] here?
Answer: The value was “significantly reduced the formation of the 89-KDa species”.

Question: What about the “NF-κB p50 subunit protein levels” value (caspase-3; 250 nM STS 17 hours) of the same compound?
Answer: Its value is “No change”.

Question: What about the “NF-κB p65 subunit protein levels” value (caspase-3; 250 nM STS 17 hours) of the same compound?
Answer: Its value is “increased”.

Question: What about the “cleaved (activated) caspase-3, western blot” value (caspase-3; 500 nM STS 6 hours) of the same compound?
Answer: The value was “reduced”.

Question: And the “targeting of zinc-finger domain in RBM5” value (RBM5; Farina et al. 2011)?
Answer: The value was “selective and potent target of the zinc-finger domain in pro-apoptotic RBM5 and inhibits its function”.

Question: And the IC50 (RBM5; read-out: IC50 of AQ2S to inhibit RBM5)?
Answer: Its IC50 is roughly 82 µM.

Question: What about the “Acute LD50” value (mice [1]) of the same compound?
Answer: Its value is 630 mg/kg.

Question: And the “Acute LD50” value (rats)?
Answer: The value was 730 mg/kg.

Question: What about the 4-HNE staining (4-HNE; 200 μM H2O2 4.5 hours, 125 μM) of the same compound?
Answer: Its 4-HNE staining is “did not significantly up-regulate 4-HNE staining”.

Question: And the “basal level of 4-HNE” value (4-HNE; uninjured, 125 AQ2S 48 hours)?
Answer: Its value is “did not significantly increase the basal level of 4-HNE”.

Question: What about the “activity of recombinant caspase-3” value [2] of the same compound?
Answer: The value was “significantly reduced the activity of recombinant caspase-3”.

Question: And the ERK activation [3]?
Answer: Its ERK activation is “did not prevent STS-mediated ERK inhibition”.

Question: And the survival (mice [4])?
Answer: The survival was “all animals survived to toxicology day 5”.

Question: And the tumor formation (mice [4])?
Answer: Its tumor formation is “did not inhibit tumor formation”.

Question: And the pAKT473 (AKT; 250 nM STS 6 hours, AQ2S)?
Answer: Its pAKT473 is “marginally increased STS-induced pAKT473 at the 6-hour time point, but did not reach statistical significance”.

Question: And the pAKT473 (AKT; 250 nM STS 21 hours, 125 μM AQ2S)?
Answer: Its pAKT473 is “pAKT473 increased in the presence of AQ2S”.

Question: And the “AKT activity (pAKT473)” value (AKT; 125 μM, 17 hours STS injury)?
Answer: The value was “significant elevation in AKT activity”.

Question: What about the “ratio of pAKT473/AKT” value (AKT; 125 μM, 17 hours STS injury) of the same compound?
Answer: Its value is “highest in the AQ2S treated group”.

Question: What about the AKT total (AKT; non-injury, 125 μM) of the same compound?
Answer: The AKT total was “No effect on AKT total was observed”.

Question: What about the pAKT473 (AKT; non-injury, 125 μM, 4 hours) of the same compound?
Answer: Its pAKT473 is “significant (but modest) rise in pAKT473”.

Question: What about the pAKT473 (AKT; non-injury, 125 μM, 24 hours) of the same compound?
Answer: Its pAKT473 is “not significant at 24 hours”.

Question: And the caspase-9 activity (caspase-9)?
Answer: Its caspase-9 activity is “significantly reduced baseline and injury activity levels”.
